Laboratory results as given in patent US6579894B2, “Prolines as antimicrobial agents” (Merck & Co., Inc., priority 1999, dated 2003).
Values after ≈ are worked out from the molar mass of the structure shown.

How the values were obtained:
S. aureus = assay: Whole cell antimicrobial screen, MIC (S. aureus); type: cell-based; conditions: 2-fold dilutions, overnight incubation; for MIC: Staphylococcus aureus, read-out: MIC (μg/mL) Sa
Method: (§1) Compounds were tested for antimicrobial activity against a panel of organisms according to standard procedures described by the National Committee for Clinical Laboratory Standards (NCCLS document M7-A3, Vol. 13, No. 25, 1993/NCCLS document M27-P, Vol. 12, No. 25, 1992). Compounds were dissolved in 100% DMSO and were diluted to the final reaction concentration (0.1 μg/ml-500 μg/ml) in microbial growth media. In all cases the final concentration of DMSO incubated with cells is less than or equal to 1%. For minimum inhibitory concentration (MIC) calculations, 2-fold dilutions of compounds were added to wells of a microtiter plate containing 1×10^5 bacteria or fungal cells in a final volume of 200 lambda of an appropriate media (Mueller-Hinton Broth; Haemophilus Test Media; Mueller-Hinton Broth+5% Sheep Blood; or […]). Plates were incubated overnight at an appropriate temperature (30° C.-37° C.) and optical densities (measure of cell growth) were measured using a commercial plate reader. The MIC value is defined as the lowest compound concentration inhibiting growth of the test organism.

[1] = test system: aminoacyl-tRNA synthetases (aaRS); assay: aaRS charging and trichloroacetic acid precipitation assay, IC50 (E. faecalis); type: biochemical; conditions: aaRS of E. faecalis; values are range classes
Method: (§2) IC50 determinations for the aminoacyl-tRNA synthetases (aaRS) isolated from pathogen or HeLa cells were carried out using a modification of the aaRS charging and trichloroacetic acid precipitation assay described previously (see examples: D. Kern et. al., Biochemie, 61, 1257-1272 (1979) and J. Gilbart et. al. Antimicrobial Agents and Chemotherapy, 37(1), 32-38 (1993)). The aaRS enzymes were prepared via standard cloning and expression methods and partially purified or partially purified from pathogen and HeLa cell extracts. The activity of each aaRS enzyme was standardized as trichloroacetic acid precipitable counts (cpm) obtained at 10 minutes reaction time at Km concentrations of substrates. For practical purposes, the minimal acceptable value is approximately 2000 cpm per 10 minute reaction.
(§3) Preincubations for IC50 determinations were initiated by incubating partially purified aaRS extracts in 50 mM HEPES (pH 7.5), 0.1 mM EDTA, 0.05 mg/ml bovine serum albumin, 10 mM dithiothreitol and 2.5% dimethyl sulfoxide with and without test compound (e.g. compound of the invention (preferably a compound of Formula I)) in a final volume of 20 microliters in a microtiter plate for 20 minutes at 25 C. Test compounds were typically present as serial dilutions in concentration ranges of 0.35 nM to 35 μM. Test compound solutions were prepared by dissolving test compound in 100% dimethyl sulfoxide and diluting to the final concentration with 50 mM HEPES, pH 7.5. IC50 determinations were typically performed in duplicate with each experiment containing 4-8 concentrations of inhibitor along with two no inhibitor controls.
(§4) IC50 incubations were initiated by supplementing the preincubation mixture to a final assay concentration of 10 mM MgCl2, 30 mM KCl, 10 mM KF, 50 mM HEPES (pH 7.5), 20 μM-500 mM ATP, 2-20 μM [^3H] amino acid, and 90-180 μM crude tRNA in a final volume of 35 microliters. The reaction was incubated at 25° C. for 5-20 minutes. At specified time points a 15 microliter aliquot was removed and added to a well of a Millipore filtration plate (Multiscreen-FB, MAFB NOB 10) containing 100 microliters of cold 5% (wt/vol) trichloroacetic acid. Trichloroacetic acid precipitable material was collected by filtration on Millipore Multiscreen filtration station, washed twice with cold 5% trichloroacetic acid, twice with water, and dried. Plates were typically allowed to air dry for several hours or they were baked at 50° C. in a vacuum oven for 30 minutes. The radioactivity on the dried plates was quantitated by the addition of Packard Microscint-20 to the wells and counting with a Packard TopCount scintillation counter.
(§5) Inhibitor activity was typically reported as a percentage of the control aaRS activity. The IC50 value was determined by plotting percent activity versus compound concentration in the assay and identifying the concentration at which 50% of the activity was remaining.

E. faecalis = assay: Whole cell antimicrobial screen, MIC (Efs); type: cell-based; conditions: 2-fold dilutions, overnight incubation; for MIC: Enterococcus faecalis, read-out: MIC (μg/mL) Efs
Method: as §1

E. faecium = assay: Whole cell antimicrobial screen, MIC (E. faecium); type: cell-based; conditions: 2-fold dilutions, overnight incubation; for MIC: Enterococcus faecium, read-out: MIC (μg/mL) Efm
Method: as §1

[2] = test system: aminoacyl-tRNA synthetases (aaRS); assay: aaRS charging and trichloroacetic acid precipitation assay, IC50 (S. aureus); type: biochemical; conditions: aaRS of S. aureus; values are range classes
Method: as §2, §3, §4, §5

| MIC (μg/mL) Sa (S. aureus) [µg/mL] | IC50 [1] [nM] | MIC (μg/mL) Efs (E. faecalis) [µg/mL] | MIC (μg/mL) Efm (E. faecium) [µg/mL] | IC50 [2] [nM] | MIC (S. aureus) [µg/mL] | MIC (E. faecalis) [µg/mL] | MIC (E. faecium) [µg/mL] | SMILES |
| --- | --- | --- | --- | --- | --- | --- | --- | --- |
| >100 | < 500 | >100 | >100 | < 500 |  |  |  | O=C(NCc1nc2ccccc2[nH]1)C1CC(c2nn[nH]n2)CN1Cc1ccc(Cl)cc1Cl (mixture of isomers) [130,706] |
|  | 1000 to 10000 |  |  | < 500 | 100 (≈ 248 µM) | < 100 |  | O=C(NCc1nc2ccccc2[nH]1)[C@@H]1CCCN1Cc1ccc(Cl)cc1Cl [126,881] |
|  | 1000 to 10000 |  |  | < 500 | < 100 | < 100 | < 100 | O=C(NCc1nc2ccccc2[nH]1)[C@@H]1CC(O)CN1Cc1ccc(Cl)cc1Cl (stereo partly shown) [127,006] |
|  | 1000 to 10000 |  |  | 1000 to 10000 | > 100 | > 100 | > 100 | N#CC1CC(C(=O)NCc2nc3ccccc3[nH]2)N(Cc2ccc(Cl)cc2Cl)C1 (stereo not shown) [127,566] |
|  | 1000 to 10000 |  |  | 1000 to 10000 | > 100 | > 100 | > 100 | O=C(NCc1nc2ccccc2[nH]1)C1CC(OCc2ccccc2)CN1Cc1ccc(Cl)cc1Cl (stereo not shown) [127,889] |
|  | 1000 to 10000 |  |  | 1000 to 10000 | > 100 | > 100 | > 100 | O=C1C[C@@H](C(=O)NCc2nc3ccccc3[nH]2)N(Cc2ccc(Cl)cc2Cl)C1 [130,692] |
| <100 | 1000 to 10000 | >100 | 100 (≈ 240 µM) | 1000 to 10000 |  |  |  | O=C(NCc1nc2ccccc2[nH]1)[C@@H]1CCCCN1Cc1ccc(Cl)cc1Cl [130,693] |
|  | 1000 to 10000 |  |  | 1000 to 10000 | > 100 | > 100 | > 100 | O=C(NCc1nc2ccccc2[nH]1)C1CC(=NO)CN1Cc1ccc(Cl)cc1Cl (stereo not shown) [130,707] |
|  | 1000 to 10000 |  |  | 1000 to 10000 | > 100 | > 100 | > 100 | CON=C1CC(C(=O)NCc2nc3ccccc3[nH]2)N(Cc2ccc(Cl)cc2Cl)C1 (stereo not shown) [130,708] |
|  | 1000 to 10000 |  |  | 1000 to 10000 | > 100 | > 100 | > 100 | O=C(O)CON=C1CC(C(=O)NCc2nc3ccccc3[nH]2)N(Cc2ccc(Cl)cc2Cl)C1 (stereo not shown) [130,709] |
| <100 | 1000 to 10000 | >100 | >100 | 1000 to 10000 |  |  |  | O=C(NCc1nc2ccccc2[nH]1)[C@H]1CCCN1Cc1ccc(Cl)cc1Cl [130,724] |
| >100 | 10000 to 60000 | >100 | >100 | 10000 to 60000 |  |  |  | O=C(NCc1nc2ccccc2[nH]1)C1CC(O)CN1Cc1ccc(Cl)cc1Cl (stereo not shown) [130,725] |
| 100 (≈ 238 µM) | < 500 | <100 | 100 (≈ 238 µM) | < 500 |  |  |  | O=C(NCc1nc2ccccc2[nH]1)[C@@H]1C[C@H](O)CN1Cc1ccc(Cl)cc1Cl [130,900] |
| <100 | 501 to 1000 | <100 | <100 | < 500 |  |  |  | O=C(NCc1nc2ccccc2[nH]1)[C@@H]1C[C@@H](O)CN1Cc1ccc(Cl)cc1Cl [130,901] |
| 100 (≈ 256 µM) | 1000 to 10000 | >100 | 100 (≈ 256 µM) | 1000 to 10000 |  |  |  | Clc1ccc(CN2CCC[C@H]2COCc2nc3ccccc3[nH]2)c(Cl)c1 [130,928] |
|  | < 500 |  |  | < 500 | > 100 | > 100 | > 100 | O=C(O)CC1CC(C(=O)NCc2nc3ccccc3[nH]2)N(Cc2ccc(Cl)cc2Cl)C1 (stereo not shown) [130,973] |
